“Also recorded” adds a separate entry of the source. No end group written: not given here.
Key:
[1] = system: melanoma B16F10-Nex2 cells; assay: Alanine scanning series cell adhesion assay (MTT after trypsin-EDTA); assay type: cell-based, murine; details: 1 mM peptide, 24 hours
Procedure: The peptide RB10 (SEQ ID NO: 9) was engineered to replace each amino acid by alanine using Ala-scan methodology, and thus help evaluate the role of each amino acid on biological effect, specifically on the hyper-adherence observed with 1 mM peptide.
For this purpose, viable melanoma B16F10-Nex2 cells (1×10^4)/well were distributed on a 96-well culture plate and incubated for 4 hours. Fresh media containing 1 mM of the alanine-scanning series for RB10 was added and incubated for 24 hours. Treated cells were detached with 30 μl/well of trypsin-EDTA for five minutes at 37° C. and gently washed with PBS. Cells were incubated for 4 hours with 0.5 mg/mL of MTT [3-(4,5-Dimethylthiazol-2-yl)-2,5-diphenyltetrazolium bromide] in fresh media and the formazan crystals were solubilized adding 1 volume of a 10% SDS solution overnight. Intensity was measured using a plate reader at 570 nm. […] The 100% value for each peptide represented the treated cells that had not been trypsinized.

B16F10-Nex2 cells [2] = assay: Superoxide anion production, dihydroethidium (DHE) assay; assay type: cell-based, murine; details: 1 mM, 18 hours
Procedure: Based on the internal interactions of components, such as, actin and peroxides in tumor cells, even leading to apoptosis, the production of anion superoxide in tumor cells treated with RB10 was examined by dihydroethidium (DHE) assay.
B16F10-Nex2 cells were treated with 1 mM RB10 for 18 hours or 5 mM H2O2 for 20 minutes. Treated cells with peptide or H2O2 and untreated cells were then incubated with DHE. Conversion of DHE to ethidium by oxidation was observed using fluorescence microscopy (Magnification 600×).

[3] = system: B16F10-Nex2 melanoma cells; assay: Cell migration, wound healing assay; assay type: cell-based, murine; details: for inhibition of cell migration (words): peptide 500 μM, 24 hours after wounding
Procedure: (§1) For the migration studies, 5×10^5 or 10^6 cells were distributed on 6-well plates and let them to adhere for 2 hours at 37° C./5% CO2. The culture medium was changed and the peptide was added at 500 μM overnight. The cell monolayer was “wounded” with a P1000 tip and incubated for 24 hours. Images of untreated cells (control) and peptide treated cells were captured with a JENOPTIK camera. Cell numbers (nuclei) were determined using the Pixcavator software version 5.0.
Viable B16F10-Nex2 cells (5×105)/well were distributed on a 6-well culture plate and incubated overnight at 37° C. in a humidified chamber with 5% CO2. A P1000 tip was used for wounding the cell monolayer and the image was immediately captured (0 hour) using a camera (Jenoptik) with the software Progres 2.8. After 24 hours a new image of the same field was obtained and recorded (24 hours).
Viable B16F10-Nex2 cells (3×10^5)/well were distributed in a 12-well culture plate and incubated for 4 hours at 37° C. in a humidified chamber with 5% CO2. Fresh medium containing RB10 (SEQ ID NO: 9) at different concentrations was added to the wells and incubated again for 4 hours. The monolayer wounding was performed as described above in Example 12, and images obtained accordingly. After 24 hours a new image in the same field was obtained and recorded (24 hours). […] Magnification ×100.

[4] = system: human cervix cancer HeLa cells; assay: Cell migration, wound healing assay; assay type: cell-based; details: peptide 500 μM, 24 hours
Procedure: as §1

B16F10-Nex2 cells [5] = assay: Growth inhibition (cell number by image analysis); assay type: cell-based, murine
Procedure: Viable B16F10-Nex2 cells (5×10^5)/well were distributed on a 6-well culture plate and incubated for 4 hours. Fresh medium containing 0 or 500 μM of RB10 ([…]) was added to the wells and incubated for 12 hours. Image was captured using a camera (Jenoptik) with the software Progres 2.8. The number of cells was detected using the software pixcavator (intelligent perception). After 12 hours with 0.5 mM of RB10, melanoma cells had fewer cells by 39% (FIG. 15); these cells were still able to proliferate but not to migrate. […] Magnification ×100.

melanoma = assay: Primary tumor development in a subcutaneous model; assay type: in vivo; details: susceptible mice
B16F10-Nex2 cells [6] = assay: Tumor cell invasion through Matrigel (Transwell); assay type: cell-based, murine; set-up: inhibition of cell invasion: dose or concentration left out as unconfirmed; details: 24 hours
Procedure: […] As a chemoattractant, 10% FCS in RPMI was used in the transwell lower chamber. After 24 hours at 37° C. in humidified atmosphere with 5% CO2, non-invasive cells were excluded with a swab, and cells that crossed the membrane were fixed with methanol and stained with Giemsa. Cells were counted in each transwell membrane, and the numbers of invasive cells are expressed as percentages.

[7] = Peptide degradation by human plasma (HPLC / mass spectrum); assay type: in vitro ADME
Procedure: (§2) Peptides have variable half lives in the plasma due to the proteolytic activity and the renal filtration, which are relevant aspects in the pharmacokinetics of drug candidates.
To analyze the peptide in HPLC and Mass Spectrum, an aliquot of 200 μL was transferred to a new Eppendorf tube and proteins were precipitated with 20 μL trifluoroacetic acid for 5 minutes at 4° C. After centrifugation for 10 minutes at 14,000 rpm, the supernatant was analyzed in an LC/ESI-MS (Waters).
Regarding assays for determining time-lapse plasma degradation of RB9 peptide, peptide degradation by human plasma was monitored in HPLC and Mass spectra every 30 minutes as described above (FIG. 12). About 50% RB9 was cleaved after 2 hours of incubation at 37° C.

3T3 murine fibroblasts = assay: Cell migration, wound healing assay; assay type: cell-based; details: normal non-tumorigenic cells
Procedure: as §1

[8] = system: FibroRP primary human fibroblasts; assay: Cell migration, wound healing assay; assay type: cell-based; details: normal non-tumorigenic cells
Procedure: as §1

[9] = system: T75 primary human fibroblasts; assay: Cell migration, wound healing assay; assay type: cell-based; details: normal non-tumorigenic cells
Procedure: as §1

[10] = system: human breast cancer SKBr-3 cells; assay: Cell migration, wound healing assay; assay type: cell-based; details: peptide 500 μM, 24 hours
Procedure: as §1

[11] = system: human colon cancer HCT cells; assay: Cell migration, wound healing assay; assay type: cell-based; details: peptide 500 μM, 24 hours
Procedure: as §1

[12] = system: human melanoma A2058 cells; assay: Cell migration, wound healing assay; assay type: cell-based; details: peptide 500 μM, 24 hours
Procedure: as §1

[13] = system: human ovary cancer OVCAR-3 cells; assay: Cell migration, wound healing assay; assay type: cell-based; details: peptide 500 μM, 24 hours
Procedure: as §1

[14] = In vivo peptide toxicity evaluation (histopathology); set-up: species or system mice; details: 300 μg via i.p., seven consecutive days
Procedure: Mice were injected with RB9 (SEQ ID NO: 8) for seven consecutive days (300 μg via i.p.) and were sacrificed thereafter for histopathology. […] Also the peptides were not hemolytic as shown in FIG. 21 for RB10M3 (SEQ ID NO: 31).

Solubility comparison = assay type: physicochemical
From the text: as §2

With “CARGETARATFAYWGQG-NH2 [RB10, CARGETARATFAYWGQG-NH2]” the trypsin/EDTA-resistant cell adherence [1] was “high trypsin/EDTA-resistant cell adherence”, the “reaction with dihydroethidium (anion superoxide production)” value (B16F10-Nex2 cells [2]) was “positive” and the “inhibition of cell migration” value ([3]; 30 μM, 24 hours) was “more than 30%”. For the same molecule, the “inhibition of cell migration” value ([3]; 500 μM, 24 hours) was 100%, the “migration inhibition, dose dependence” value ([3]; different concentrations, 24 hours) was “dose-dependent inhibition” and the “inhibition of cell migration (words)” value [3] was “Total inhibition; also recorded: inhibited; also recorded: complete inhibition”. For the same molecule, the “inhibition of cell migration” value [4] was “complete or almost complete inhibition”, the “fewer cells than control” value (B16F10-Nex2 cells [5]; 0.5 mM, 12 hours) was 39% and the “inhibition of growth” value (B16F10-Nex2 cells [5]; 12 hours incubation) was “partial inhibition”. The “protection against development of a primary tumor” value (melanoma) was “not against the development of a primary tumor”.
With `C[C@@H]1NC(=O)[C@H](CCCNC(=N)N)NC(=O)[C@H](C)NC(=O)[C@H]([C@@H](C)O)NC(=O)[C@H](CCC(=O)O)NC(=O)CNC(=O)[C@H](CCCNC(=N)N)NC(=O)[C@H](C)NC(=O)[C@@H](N)CSSC[C@@H](C(N)=O)NC(=O)CNC(=O)[C@H](CCC(N)=O)NC(=O)CNC(=O)[C@H](Cc2c[nH]c3ccccc23)NC(=O)[C@H](Cc2ccc(O)cc2)NC(=O)[C@H](C)NC(=O)[C@H](Cc2ccccc2)NC(=O)[C@H]([C@@H](C)O)NC1=O` [RB9, CARGETARATFAYWGQGC-NH2] the “inhibition of cell invasion” value (B16F10-Nex2 cells [6]) was 60%, the “inhibition of cell invasion through Matrigel, dose dependence” value (B16F10-Nex2 cells [6]; 10% FCS chemoattractant) was “dose-dependent inhibition” and the “degradation in human plasma at 24 hours” value ([7]; 24 hours, 37° C.) was “whole peptide was degraded; also recorded: total degradation”. For the same molecule, the “peptide cleaved / degraded in human plasma” value ([7]; after 2 hours of incubation at 37° C.) was 50%, the metabolised at 2 h, 1.67 mg/mL ([7]; human, human plasma, after 2 hours of incubation at 37° C., read-out: peptide cleaved / degraded in human plasma) was roughly 50% and the “inhibition of cell migration (words)” value [3] was “Total inhibition; also recorded: complete inhibition”. The “inhibition of cell migration” value (3T3 murine fibroblasts) was “did not affect; also recorded: non-inhibition”, the “inhibition of cell migration” value [8] was “did not affect; also recorded: non-inhibition” and the “inhibition of cell migration” value [9] was “did not affect; also recorded: non-inhibition”. The “inhibition of cell migration” value [10] was “completely inhibited; also recorded: complete inhibition”, the “inhibition of cell migration” value [11] was “completely inhibited; also recorded: partial inhibition” and the “inhibition of cell migration” value [12] was “completely inhibited; also recorded: complete inhibition”. The “inhibition of cell migration” value [13] was “half inhibited; also recorded: partial inhibition”, the “toxicity, morphological alterations in liver, lung, heart, kidney and spleen” value [14] was “No signs of toxicity or morphological alterations” and the “solubility (comparison)” value (Solubility comparison) was “more soluble than RB10”.

From patent publication US9896512B2, “Antitumor peptide derived from a complementarity determining region of a humanized monoclonal antibody to NAP12B transporter” (Recepta Biopharma S.A., priority 2010, dated 2018)
